Data reported in US20210177879A1, “VITAMIN D RECEPTOR AGONIST” (Guanghzou University of Chinese Medicine, priority 2018, published 2021).

Key:
[1] = test system: SRC; assay: Detection of acting target of monotropein: SRC (Western blot); format: in vivo, Balb/c mice; conditions: colon of AOM/DSS mice
Procedure: (§1) Experimental method: 90 Balb/c mice of 6-8 weeks were purchased from the Experimental Animal Center in Guangzhou University of Chinese Medicine, weighed about 18-22 g, and subjected to adaptive feeding for 10 days. Modeling was divided into three stages. In the first stage, except for the normal group of animals being given saline injection, each of the other animals were intraperitoneally injected with a carcinogen AOM (10 mg/kg), and given free access to 2% DSS water from the next day for 7 days, and then given access to replaced regular drinking water for 14 days. In the second stage, the animals were given free access to 2% DSS water for 10 days, and then given access to replaced regular drinking water for 14 days. In the third stage, the animals were given free access to 2% DSS water for 10 days, and then given access to replaced regular drinking water for 11 days. The normal group was given access to regular drinking water throughout the experiment. The diet, water drinking and body weights of the animals were recorded daily and DAI scores were made, and the animals were killed and harvested at the 10th week. […]
(§2) A potential acting target of monotropein for interfering with the colon cancer was detected.

[2] = test system: AOM/DSS colon cancer model; assay: AOM/DSS colon cancer model, Experiment 1 (body weight, anal prolapse, organ coefficient, colon and tumor indexes); format: in vivo, Balb/c mice
Procedure: Experimental method: 90 Balb/c mice of 6-8 weeks were purchased from the Experimental Animal Center in Guangzhou University of Chinese Medicine, weighed about 18-22 g, and subjected to adaptive feeding for 10 days. Modeling was divided into three stages. In the first stage, except for the normal group of animals being given saline injection, each of the other animals were intraperitoneally injected with a carcinogen AOM (10 mg/kg), and given free access to 2% DSS water from the next day for 7 days, and then given access to replaced regular drinking water for 14 days. In the second stage, the animals were given free access to 2% DSS water for 10 days, and then given access to replaced regular drinking water for 14 days. In the third stage, the animals were given free access to 2% DSS water for 10 days, and then given access to replaced regular drinking water for 11 days. The normal group was given access to regular drinking water throughout the experiment. The diet, water drinking and body weights of the animals were recorded daily and DAI scores were made, and the animals were killed and harvested at the 10th week. In this experiment, the animals were divided into groups and administrated on the first day of a modeling period of the second stage, and the total number of groups was set to 5 groups. The first group was a blank control group (Normal), in which a total of 12 animals were given access to drinking water by gavage; the second group was a model group (AOM/DSS), in which a total of 22 animals were given access to drinking water by gavage; the third group was a positive drug control group (5-ASA+AOM/DSS), in which a total of 22 animals were given access to 100 mg/kg of mesalazine (5-ASA) by gavage; and the fourth and fifth groups were monotropein-intervening groups (Mo+AOM/DSS), which were a high dose of 8 mg/kg and a low dose of 2 mg/kg, respectively, with 17 animals in each group. Dosing was conducted daily until dissection.
(1) The calculation formula of a DAI score: DAI value=(score of weight loss+score of stool trait+score of blood in stool)/3.
The animals were anesthetized and harvested, and the liver, spleen, thymus and testis were weighed to calculate the organ coefficient; the colon tissue was taken, measured with a ruler for the length, and measured with a vernier caliper for the thickness, and the number and size of tumors and degree of colonic ulceration and adhesion were recorded; respective tissues were cut into small pieces and fixed, and the remaining tissues were frozen and stored; and the fixed tissues were used for HE staining and immunohistochemistry.

[3] = test system: peripheral blood macrophages; assay: Typing of peripheral blood macrophages by flow cytometry; format: in vivo, Balb/c mice; conditions: compared with normal group
Procedure: Experimental method: 90 Balb/c mice of 6-8 weeks were purchased from the Experimental Animal Center in Guangzhou University of Chinese Medicine, weighed about 18-22 g, and subjected to adaptive feeding for 10 days. Modeling was divided into three stages. In the first stage, except for the normal group of animals being given saline injection, each of the other animals were intraperitoneally injected with a carcinogen AOM (10 mg/kg), and given free access to 2% DSS water from the next day for 7 days, and then given access to replaced regular drinking water for 14 days. In the second stage, the animals were given free access to 2% DSS water for 10 days, and then given access to replaced regular drinking water for 14 days. In the third stage, the animals were given free access to 2% DSS water for 10 days, and then given access to replaced regular drinking water for 11 days. The normal group was given access to regular drinking water throughout the experiment. The diet, water drinking and body weights of the animals were recorded daily and DAI scores were made, and the animals were killed and harvested at the 10th week. In this experiment, the animals were divided into groups and administrated on the first day of a modeling period of the second stage, and the total number of groups was set to 5 groups. […] Dosing was conducted daily until dissection. […]

[4] = test system: HT29 transplanted tumor; assay: Transplanted tumor of HT29 colon cancer cells in nude mice; format: in vivo; conditions: 2 mg/kg in combination with 5-fluorouracil at half dose (20 mg/kg), once a day; effect comparable to 5-fluorouracil alone 40 mg/kg
Procedure: The HT29 cells were thawed, and cultured in a changed medium after 24 hours. Medium preparation method: 6% serum, 1% of a bispecific antibody+a 1640 basal medium. After grown to confluent, the cells were digested and subcultured to expand the number of cells. When reached the required amount, the cells were digested by trypsin, centrifuged, and resuspended in PBS to prepare a cell suspension of 1×10^8 cells/ml. A part of the cell suspension was added with the monotropein, desacetyl asperulosidic acid, asperuloside, and asperulosidic acid respectively, and the inhibition rate (%) of tumor cell proliferation by each of these different compounds was examined.
Male adult nude mice, which had the body weights of 20-24 g, were purchased from Guangdong Medical Laboratory Animal Center. After 7 days of adaptive feeding of the animals, except for the blank group, the remaining animals were injected with 0.2 ml of a cell suspension in PBS at ventrodorsal and scapula sites of them, the response conditions of the animals were observed, and the body weights of the animals were determined once a week. After 2 weeks of observation, the animals were grouped into the following groups according to tumor size: a blank group; a model group; a 5-fluorouracil control group (5-Full, 40 mg/kg); monotropein+5-fluorouracil (2 mg/kg monotropein+20 mg/kg 5-fluorouracil), desacetyl asperulosidic acid+5-fluorouracil (2 mg/kg desacetyl asperulosidic acid+20 mg/kg 5-fluorouracil), asperuloside+5-fluorouracil (2 mg/kg asperuloside+20 mg/kg 5-fluorouracil), asperulosidic acid+5-fluorouracil (2 mg/kg asperulosidic acid+20 mg/kg 5-fluorouracil), these groups being labeled as: Mo, As, Aa, Da. Each group included 8 animals; and administration was conducted once a day.
The status, death conditions, and eating and drinking conditions of the animals were observed daily. The body weights of the animals were determined once a week and the tumor size of the animals was determined every 4 days. The tumor volume of the animals was determined by using a vernier caliper. After 1 month of administration, the animals were sacrificed after blood was sampled from the orbit thereof, and the tumor was separated and weighed.

[5] = test system: Aktl; assay: Detection of acting target of monotropein: Aktl (Western blot); format: in vivo, Balb/c mice; conditions: colon of AOM/DSS mice
Procedure: as §1, §2

O=C(O)C1=CO[C@@H](O[C@@H]2O[C@H](CO)[C@@H](O)[C@H](O)[C@H]2O)[C@H]2[C@@H]1C=C[C@]2(O)CO [monotropein]
effect on SRC, Western blot [1]: no significant effect | spleen enlargement caused by AOM/DSS modeling (organ coefficient) ([2]; monotropein high (8 mg/kg) and low (2 mg/kg) doses, 5-ASA 100 mg/kg): significantly reduce the spleen enlargement | anal prolapse occurrence at the third stage of modeling ([2]; per group, monotropein 8 mg/kg and 2 mg/kg groups (17 animals each), 5-ASA 100 mg/kg (22 animals), gavage daily, model group 8-12): 2-6 animals | M1/M2 ratio of peripheral blood macrophages [3]: up-regulating trend | tumor proliferation in HT29 tumor-bearing mice [4]: significantly inhibit tumor proliferation | effect on Aktl, Western blot [5]: no significant effect
